Literature values, collected in patent US12357578B2, “Ibuprofen and famotidine tablet” (APPCO PHARMA LLC, priority 2020, dated 2025).

Solubility in organic solvents (in words) (organic solvents such as ethanol and acetone)	Solubility in water (water)	Solubility in water (in words) (water)	Solubility in ethanol (in words) (ethanol)	Solubility in glacial acetic acid (in words) (glacial acetic acid)	Solubility in methanol (in words) (methanol)	Compound
readily soluble	< 1000 µg/mL	very slightly soluble	–	–	–	CC(C)Cc1ccc(C(C)C(=O)O)cc1 (racemic) [Ibuprofen, (±)-2-(p-isobutylphenyl) propionic acid]
–	–	very slightly soluble	practically insoluble	freely soluble	slightly soluble	NC(N)=Nc1nc(CSCCC(N)=NS(N)(=O)=O)cs1 [Famotidine]
